Assay results: patent US5225528A, “Cyclic hexapeptide oxytocin antagonists” (priority 1990, dated 1993)
Like-named read-outs stand apart in the source and are kept apart here. Numbered stars: 1 amine (or outer) side, 2 acyl side, 3 side chain; on linkers, the order of the positions; unused ones are H or OH. Square brackets hold non-standard residues; d marks the D form. Peptide text beside a SMILES is read from it. * marks the point of attachment. X9 = O=C([C@@H]1CN(P(=O)(OCc2ccccc2)OCc2ccccc2)CCN1[*:1])[*:2]; dPip(4-aza,4-Cbz) = O=C(O)[C@H]1CN(C(=O)OCc2ccccc2)CCN1; X2 = O=C(OCc1ccccc1)N1CCN([*:1])[C@H](C(=O)[*:2])C1; dPhe(4-NO2) = N[C@H](Cc1ccc([N+](=O)[O-])cc1)C(=O)O; dPiz(1,6-dehydro) = O=C(O)[C@H]1CCC=NN1; d2Nal = N[C@H](Cc1ccc2ccccc2c1)C(=O)O; dNMeY = CN[C@H](Cc1ccc(O)cc1)C(=O)O; Ethylenediamine = C(CN[*:2])N[*:1]; X3 = O=C([C@@H]1C=CCCN1[*:1])[*:2]; dNMeF = CN[C@H](Cc1ccccc1)C(=O)O; dOrn = NCCC[C@@H](N)C(=O)O; Pip = O=C(O)[C@@H]1CCCCN1; dPip = O=C(O)[C@H]1CCCCN1; Orn = NCCC[C@H](N)C(=O)O; dNMeA = CN[C@H](C)C(=O)O; Cbz = O=C(OCc1ccccc1)*; Dap = NC[C@H](N)C(=O)O; Bn = c1ccc(C*)cc1; OtBu = CC(C)(C)O*

Experiments:
AVP-V2 sites = target: T1, AVP-V2 sites (Rattus norvegicus, UniProt Q00788); test: [^3 H]AVP binding to crude membrane preparation of male rat kidney medulla (AVP-V2 sites)
T1 construct: male rat liver (AVP-V1 sites) or kidney medulla (AVP-V2 sites); from tissue; host or cells: male rat kidney medulla, crude membranes
Experimental: (§1) Nonspecific binding (5-10% of the total binding) was determined using 10 μM unlabeled AVP, and the binding reaction was terminated by filtration as described above for the [^3 H]OT binding assay.

uterine OT receptors = target: T2, uterine OT receptors (Rattus norvegicus, UniProt P70536); test: [^3 H]OT binding to uterine OT receptors, crude membrane preparation of uteri from DES-treated rats; conditions: for inhibition at 1 µM / inhibition at 0.1 µM: 1 h, read-out: [^3 H]OT: percent inhibition of radioligand at the given concentration; for inhibition at 1 µM: @ 1,000 (nM); for IC50: rat uterus membranes, 1 nM [^3 H]OT, read-out: Receptor Binding Results IC50 (nM) [^3 H]OT
T2 construct: from tissue; host or cells: uterus of DES-treated rats, crude membranes
T2 sequence (P70536 1-388): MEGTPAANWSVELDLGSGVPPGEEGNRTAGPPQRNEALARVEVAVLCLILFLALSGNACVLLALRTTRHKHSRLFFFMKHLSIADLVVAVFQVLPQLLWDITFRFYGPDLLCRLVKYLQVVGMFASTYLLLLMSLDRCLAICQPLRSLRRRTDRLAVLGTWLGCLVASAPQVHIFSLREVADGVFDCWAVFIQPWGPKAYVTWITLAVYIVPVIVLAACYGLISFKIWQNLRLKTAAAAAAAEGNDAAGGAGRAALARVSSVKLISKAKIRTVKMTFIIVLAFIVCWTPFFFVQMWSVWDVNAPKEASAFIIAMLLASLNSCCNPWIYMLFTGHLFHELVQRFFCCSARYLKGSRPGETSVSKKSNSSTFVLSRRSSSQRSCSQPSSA
Experimental: Competition studies were conducted at equilibrium (60 minutes; 22° C.) using 1 nM [^3 H]OT in the following assay buffer: 50 mM Tris-HCl, 5 mM MgCl2, and 0.1% BSA, pH 7.4.

AVP-V1 sites = target: T3, AVP-V1 sites (Rattus norvegicus, UniProt P30560); test: [^3 H]AVP binding to crude membrane preparation of male rat liver (AVP-V1 sites)
T3 construct: crude membrane preparation of male rat liver (AVP-V1 sites); from tissue; host or cells: male rat liver, crude membranes
Experimental: as §1

[1] = rat kidney medulla membranes, 2 nM [^3 H]AVP, read-out: Receptor Binding Results IC50 (nM) [^3 H]-AVP-V2
[2] = Receptor Binding Results IC50 (nM) [^3 H]-AVP-V1
[3] = read-out: Receptor Binding Results IC50 (nM) [^3 H]-AVP-V2
[4] = read-out: Receptor Binding Results IC50 (nM) [^3 H]-AVP-V1
[5] = Receptor Binding Results IC50 (nM) [^3 H]-AVP-V2

T1 sequence (Q00788 whole entry): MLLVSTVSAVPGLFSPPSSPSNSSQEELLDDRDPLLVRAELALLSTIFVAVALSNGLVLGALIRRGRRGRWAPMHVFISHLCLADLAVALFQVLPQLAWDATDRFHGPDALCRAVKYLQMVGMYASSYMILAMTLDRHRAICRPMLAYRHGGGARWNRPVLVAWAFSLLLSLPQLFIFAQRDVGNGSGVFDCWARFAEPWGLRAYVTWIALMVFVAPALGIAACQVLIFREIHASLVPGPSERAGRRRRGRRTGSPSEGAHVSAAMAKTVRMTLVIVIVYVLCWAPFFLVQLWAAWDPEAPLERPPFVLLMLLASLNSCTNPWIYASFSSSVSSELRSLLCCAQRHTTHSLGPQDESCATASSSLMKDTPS
T3 sequence (P30560 whole entry): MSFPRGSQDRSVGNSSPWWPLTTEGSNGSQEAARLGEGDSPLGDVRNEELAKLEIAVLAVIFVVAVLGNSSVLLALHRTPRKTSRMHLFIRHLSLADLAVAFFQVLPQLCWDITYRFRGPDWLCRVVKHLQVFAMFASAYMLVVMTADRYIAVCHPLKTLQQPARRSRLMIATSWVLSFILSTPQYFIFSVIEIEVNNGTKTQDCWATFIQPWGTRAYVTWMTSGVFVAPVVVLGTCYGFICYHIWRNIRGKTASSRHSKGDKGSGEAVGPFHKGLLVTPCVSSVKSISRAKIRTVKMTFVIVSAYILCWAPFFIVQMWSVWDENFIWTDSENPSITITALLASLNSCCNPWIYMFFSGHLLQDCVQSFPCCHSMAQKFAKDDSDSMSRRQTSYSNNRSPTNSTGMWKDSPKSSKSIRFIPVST

SMILES	IC50 (AVP-V2 sites; [1])	IC50 (AVP-V1 sites; [2])	IC50 (uterine OT receptors)	other results
CC[C@H](C)[C@@H]1NC(=O)[C@@H](Cc2ccccc2)NC(=O)[C@@H]2CCCN2C(=O)[C@@H](CC(=O)OC(C)(C)C)NC(=O)[C@@H]2CCCCN2C(=O)[C@H]2CCCCN2C1=O [Example 179, c-[D-Phenylalanyl-L-isoleucinyl-D-pipecolyl-L-pipecolyl-D-(β-t-butyl)aspartyl-L-prolyl]] (cyclo(I[dPip][Pip][dD](OtBu)P[dF]))	> 10000 nM	> 10000 nM		inhibition at 1 µM (uterine OT receptors): 63%
CC[C@H](C)[C@@H]1NC(=O)[C@@H](Cc2ccccc2)NC(=O)[C@@H]2CCCN2C(=O)[C@@H](Cc2ccccc2)N(C)C(=O)[C@@H]2CCCCN2C(=O)[C@H]2CCC=NN2C1=O [Example 112, c-[D-Phenylalanyl-L-isoleucyl-D-Δ-piperazyl-L-pipecolyl-N-methyl-D-phenylalanyl-L-prolyl]] (cyclo(I[dPiz(1,6-dehydro)][Pip][dNMeF]P[dF]))			14.7 nM	IC50 (AVP-V2 sites; [3]): 1170 nM; IC50 (AVP-V1 sites; [4]): 3450 nM
CC[C@H](C)[C@@H]1NC(=O)[C@@H](Cc2c[nH]c3ccccc23)NC(=O)[C@@H]2CCCN2C(=O)[C@@H](Cc2ccccc2)N(C)C(=O)[C@H](CCCNC(=O)OCc2ccccc2)NC(=O)[C@H]2CCCCN2C1=O [Example 34, Cyclo[D-trytophanyl-L-isoleucyl-D-pipecolyl-L-(carbobenzyloxy)ornithyl-D-(N^α methyl)phenylalanyl-L-prolyl]] (cyclo(I[dPip][Orn](Cbz)[dNMeF]P[dW]))	10000 nM	> 1000 nM	100 nM	
CC[C@H](C)[C@@H]1NC(=O)[C@@H](C)N(C)C(=O)[C@@H]2CCCN2C(=O)[C@@H](Cc2ccccc2)N(C)C(=O)[C@@H]2CCCCN2C(=O)[C@H]2CCCCN2C1=O [Example 167, c-[N-Me-D-Alanyl-L-isoleucyl-D-pipecolyl-L-pipecolyl-N-Me-D-phenylalanyl-L-prolyl]] (cyclo(I[dPip][Pip][dNMeF]P[dNMeA]))	> 10000 nM	> 10000 nM		inhibition at 1 µM (uterine OT receptors): 5%
CC[C@H](C)[C@@H]1NC(=O)[C@@H](Cc2ccccc2)NC(=O)[C@@H]2CCCN2C(=O)[C@@H](Cc2ccccc2)N(C)C(=O)[C@@H]2CN(C(=O)OCc3ccccc3)CCN2C(=O)[C@H]2CN(C(=O)OCc3ccccc3)CCN2C1=O [Example 86, c-[D-Phenylalanyl-L-isoleucinyl-D-piperazin-2-yl(4-Cbz)-L-piperazin-2-yl(4-Cbz)-D-(N^α -methyl)phenylalanyl-L-prolyl]] (cyclo(I[dPip(4-aza,4-Cbz)][X2][dNMeF]P[dF]))	> 10000 nM	> 10000 nM		inhibition at 1 µM (uterine OT receptors): 58%
CC[C@H](C)[C@@H]1NC(=O)[C@@H](Cc2ccccc2)NC(=O)[C@@H]2CCCN2C(=O)[C@@H](CCCNC(=O)OCc2ccccc2)NC(=O)[C@@H]2CCCCN2C(=O)[C@H]2CCCCN2C1=O [Example 27, Cyclo[D-phenylalanyl-L-isoleucyl-D-pipecolyl-L-pipecolyl-D-(carbobenzyloxy)-ornithyl-L-prolyl]] (cyclo(I[dPip][Pip][dOrn](Cbz)P[dF]))	10000 nM	10000 nM		inhibition at 1 µM (uterine OT receptors): 79%
CC[C@H](C)[C@@H]1NC(=O)[C@@H](Cc2ccc3ccccc3c2)NC(=O)[C@@H]2CCCN2C(=O)[C@@H](Cc2c[nH]cn2)NC(=O)[C@@H]2CCCCN2C(=O)[C@H]2CCCCN2C1=O [Example 12, Cyclo[D-2-naphthalalanyl-L-isoleucyl-D-pipecolyl-L-pipecolyl-D-histidyl-L-prolyl]] (cyclo(I[dPip][Pip][dH]P[d2Nal]))		> 1000 nM	1.2 nM	IC50 (AVP-V2 sites; [5]): > 1000 nM
CC[C@H](C)[C@@H]1NC(=O)[C@@H](Cc2ccccc2)NC(=O)[C@@H]2CCCN2C(=O)[C@@H](Cc2ccccc2)N(C)C(=O)[C@@H]2CCCCN2C(=O)[C@@H](C)N(C)C1=O [Example 8, Cyclo[D-Phenylalanyl-L-isoleucyl-D-(N^α methyl)alanyl-L-pipecolyl-D-(N^α methyl)phenylanyl-L-prolyl]] (cyclo(I[dNMeA][Pip][dNMeF]P[dF]))	> 10000 nM	> 10000 nM	850 nM	
CC[C@H](C)[C@@H]1NC(=O)[C@@H](Cc2ccccc2)NC(=O)[C@@H]2CCCN2C(=O)[C@@H](Cc2ccccc2)N(C)C(=O)[C@H](CN)NC(=O)[C@H]2CCCCN2C1=O [Example 121, c-[D-Phenylalanyl-L-isoleucyl-D-pipecolyl-L-2,3-diaminopropionyl-N-methyl-D-phenylalanyl-L-prolyl]] (cyclo([Dap][dNMeF]P[dF]I[dPip]))	10000 nM	10000 nM	270 nM	
CC[C@H](C)[C@@H]1NC(=O)[C@@H](Cc2c[nH]c3ccccc23)NC(=O)[C@@H]2CCCN2C(=O)[C@@H](Cc2ccccc2)N(C)C(=O)[C@@H]2CN(P(=O)(OCc3ccccc3)OCc3ccccc3)CCN2C(=O)[C@H]2CCCCN2C1=O [Example 183, c-[D-Tryptophanyl-L-isoleucinyl-D-pipecolyl-L-piperazin-2-yl(4-dibenzylphosphoramidyl)-D-(N^α -Me)phenylalanyl-L-prolyl]] (cyclo(I[dPip][X9][dNMeF]P[dW]))				inhibition at 10 µM (AVP-V2 sites; 0.5 h, read-out: [^3 H]-AVP-V2: percent inhibition of radioligand at the given concentration): 71%; inhibition at 0.1 µM (uterine OT receptors): 58%; IC50 (AVP-V1 sites; Receptor Binding Results IC50 (nM) [^3 H]-AVP-V1, rat liver membranes, 1 nM [^3 H]AVP): > 10000 nM
CC[C@H](C)[C@@H]1NC(=O)[C@@H](Cc2c[nH]c3ccccc23)NC(=O)[C@@H]2CCCN2C(=O)[C@@H](Cc2ccccc2)N(C)C(=O)[C@H](CCCN)NC(=O)[C@H]2CCCCN2C1=O [Example 40, Cyclo[D-tryptophanyl-L-isoleucyl-D-pipecolyl-L-ornithyl-D-(N^α Methyl)phenylalanyl-L-prolyl]] (cyclo(I[dPip][Orn][dNMeF]P[dW]))		> 1000 nM		IC50 (AVP-V2 sites; [5]): > 1000 nM; inhibition at 0.1 µM (uterine OT receptors; @ 100 (nM)): 59%
CC[C@H](C)[C@@H]1NC(=O)[C@@H](Cc2ccccc2)NC(=O)[C@@H]2CCCN2C(=O)[C@@H](Cc2ccc([N+](=O)[O-])cc2)NC(=O)[C@@H]2CCCCN2C(=O)[C@H]2CCCCN2C1=O [Example 47, Cyclo[D-phenylalanyl-L-isoleucyl-D-pipecolyl-L-pipecolyl-D(p-nitro)phenylalanyl-L-prolyl]] (cyclo(I[dPip][Pip][dPhe(4-NO2)]P[dF]))	10000 nM	> 1000 nM	620 nM	
CC[C@H](C)[C@@H]1NC(=O)[C@@H](Cc2c[nH]c3ccccc23)NC(=O)[C@@H]2CCCN2C(=O)[C@@H](Cc2ccc(OCc3ccccc3)cc2)N(C)C(=O)[C@@H]2CCCCN2C(=O)[C@H]2CCCCN2C1=O [Example 33, Cyclo[D-tryptophanyl-L-isoleucyl-D-pipecolyl-L-pipecolyl-D-(N^α methyl-O-benzyl)tyrosyl-L-prolyl]] (cyclo(I[dPip][Pip][dNMeY](Bn)P[dW]))	> 10000 nM	> 10000 nM	100 nM	
CC[C@H](C)[C@@H]1NC(=O)[C@@H](Cc2ccccc2)NC(=O)[C@@H]2CCCN2C(=O)[C@@H](Cc2c[nH]cn2)NC(=O)[C@@H]2CN(C(=O)OCc3ccccc3)CCN2C(=O)[C@H]2CCCCN2C1=O [Example 81, c-[D-Phenylalanyl-L-isoleucinyl-D-pipecolyl-L-piperazin-2yl(4Cbz)-D-histidinyl-L-prolyl]] (cyclo(I[dPip][X2][dH]P[dF]))		> 1000 nM	77 nM	IC50 (AVP-V2 sites; [5]): > 1000 nM
CC[C@H](C)[C@@H]1NC(=O)[C@@H](Cc2ccccc2)NC(=O)[C@@H]2CCCN2C(=O)[C@@H](Cc2ccccc2)N(C)C(=O)[C@H](CC(=O)NCCN)NC(=O)[C@H]2CCCCN2C1=O [Example 119, c-[D-Phenylalanyl-L-isoleucyl-D-pipecolyl-N^β -(aminoethyl)-L-asparagyl-N-methyl-D-phenylalanyl-L-prolyl]] (cyclo(D(Ethylenediamine)[dNMeF]P[dF]I[dPip]))			260 nM	IC50 (AVP-V2 sites; [3]): 3100 nM; IC50 (AVP-V1 sites; [4]): 7300 nM
CC[C@H](C)[C@@H]1NC(=O)[C@@H](Cc2ccccc2)NC(=O)[C@@H]2CCCN2C(=O)[C@@H](Cc2ccccc2)N(C)C(=O)[C@@H]2C=CCCN2C(=O)[C@H]2CCCCN2C1=O [Example 23, Cyclo[D-phenylanyl-L-isoleucyl-D-pipecolyl-L-(3,4-dehydro)-pipecolyl-D-(N^α methyl)phenylalanyl-L-prolyl]] (cyclo(I[dPip][X3][dNMeF]P[dF]))	> 10000 nM	> 10000 nM	625 nM	
